According to patent US11440907B1 (Merck Patent GmbH, priority 2018, dated 2022):

System: XBP1(u)-luciferase splicing reporter in HepG2 hepatoma cells
Test: HepG2 XBP1 reporter assay (XBP1(u)-Luc)
Type: cell-based
Settings: Homo sapiens, 6 h, six hours after addition of compound
Text: HepG2 XBP1 Reporter Assay
HepG2 hepatoma cells were transduced with a retrovirus encoding the cDNA for unspliced (u) XBP1, which contains a non-processed intron, fused to the cDNA for firefly luciferase. Upon induction of ER stress, the non-processed intron of XBP1(u) is spliced out by active IRE1alpha endonuclease. The resulting spliced (s) XBP1 is now in frame with luciferase which causes the production of active luciferase protein, resulting in bioluminescence
HepG2 XBP1(u)-Luc cells were plated […] Cultured cells with a stably transfected reporter construct were plated at approximately 30,000 cells per well into 96 well multi-well plates for twenty four hours. The testing compounds were then added to the wells in 3-fold serial dilutions using a twenty seven micromolar top concentration. A series of control wells for each cell type received only compound solvent. Six hours after the addition of compound, reporter activity for luciferase was assayed, by addition of the SteadyGlo luminescence reagent (Promega). The reporter luminescence activity was measured using Pherastar plate reader (BMG Labtech). Readings was normalized to DMSO only treated cells, and normalized activities were then used in the IC50 calculations. The HepG2 XBP1 reporter assay data are summarized in Tables 3-5: A<0.6 μM; 0.6 μM≤B<2.0 μM; 2.0 μM≤C<5.0 μM; D≥5.0 μM.

Row | Compound | IC50
1 | Cc1cc(N2CCCOCC2c2ccc3ncnn3c2)nc(N)n1 [D-175] | ≥ 5000 nM
2 | CCc1cc(N2CCCOC[C@H]2c2cc(O)c(OC)cc2Cl)nc(N)n1 [D-179] | ≥ 5000 nM
3 | Cc1cc(N2CCCOCC2c2cc(CN)c(Cl)cc2C)nc(N)n1 [D-73] | 600 to 2000 nM
4 | Cc1cc(N2CCCOC[C@H]2c2cc(CN)c(C)cc2Cl)nc(N)n1 [D-164] | ≥ 5000 nM
5 | Cc1cc(N2CCCOC[C@@H]2c2ccc(N3CCN(C(=O)OC(C)(C)C)CC3)cc2Cl)nc(N)n1 [D-82] | 600 to 2000 nM
6 | Cc1cc(N2CCCOCC2c2ccc(S(N)(=O)=O)cc2)nc(N)n1 [D-102] | ≥ 5000 nM
7 | Cc1cc(N2CCCOC[C@H]2c2ccc([C@H]3CCCN3)cc2Cl)nc(N)n1 [D-89] | 2000 to 5000 nM
8 | Cc1cc(N2CCCOCC2c2cc3c(cc2Cl)NC[C@@](C)(C(=O)OC(C)C)O3)nc(N)n1 (stereo partly drawn) [D-125] | < 600 nM
9 | Cc1cc(N2CCCOCC2c2ccc(NC(=O)CC(C)C)cc2Cl)nc(N)n1 [D-92] | 600 to 2000 nM
10 | Cc1cc(N2CCCOC[C@@H]2c2cc(CN)c(C)cc2Cl)nc(N)n1 [D-75] | < 600 nM
11 | Cc1cc(N2CCCOCC2c2ccc3[nH]ncc3c2)nc(N)n1 [D-108] | 2000 to 5000 nM
12 | COC(=O)c1cc(C2COCCCN2c2cc(C)nc(N)n2)c(Cl)cc1C#N [D-77] | 600 to 2000 nM
13 | Cc1cc(N2CCCOCC2c2ccc(C(C)(C)S(C)(=O)=O)cc2Cl)nc(N)n1 [D-136] | < 600 nM
14 | Cc1cc(N2CCCOC[C@@H]2c2cc(O)c(C(=O)NC(C)C)cc2Cl)nc(N)n1 [D-123] | 2000 to 5000 nM
15 | CCCC(=O)Nc1ccc(C2COCCCN2c2cc(C)nc(N)n2)c(Cl)c1 [D-95] | 600 to 2000 nM
16 | CS(=O)(=O)c1ccc(C2COCCCN2c2cc(C(F)(F)F)nc(N)n2)c(Cl)c1 [D-188] | ≥ 5000 nM
17 | Cc1cc(N2CCCOCC2c2ccc(S(C)(=O)=O)cc2C#N)nc(N)n1 [D-190] | ≥ 5000 nM

Row | Compound | IC50
18 | Cc1cc(N2CCCOC[C@H]2c2cc3c(cc2Cl)NC[C@@](C)(C(=O)OC(C)C)O3)nc(N)n1 [D-128] | 600 to 2000 nM
19 | CCc1cc(N2CCCOCC2c2cc(O)c(S(C)(=O)=O)cc2Cl)nc(N)n1 [D-87] | ≥ 5000 nM
20 | Cc1cc(N2CCCOC[C@@H]2c2ccc(NCC3CCOC3)cc2Cl)nc(N)n1 (stereo partly drawn) [D-83] | < 600 nM
21 | CCOc1cc(C2COCCCN2c2cc(C)nc(N)n2)c(Cl)cc1OCC(=O)O [D-160] | ≥ 5000 nM
22 | Cc1cc(N2CCCOCC2c2cc(O)c(OC(F)(F)F)cc2Cl)nc(N)n1 [D-74] | < 600 nM
23 | Cc1cc(N2CCCOC[C@H]2c2cc(O)c(OC(F)(F)F)cc2Cl)nc(N)n1 [D-184] | ≥ 5000 nM
24 | Cc1cc(N2CCCOC[C@@H]2c2cc3c(cc2Cl)NC[C@@](C)(C(N)=O)O3)nc(N)n1 [D-120] | < 600 nM
25 | CCC(=O)Nc1cc(Cl)c(C2COCCCN2c2cc(C)nc(N)n2)cc1O [D-97] | < 600 nM
26 | Cc1cc(N2CCCOC[C@@H]2c2ccc(NC(=O)C3(F)CCOC3)cc2Cl)nc(N)n1 (stereo partly drawn) [D-62] | 2000 to 5000 nM
27 | Cc1cc(N2CCCOC[C@H]2c2ncc(CS(C)(=O)=O)cc2Cl)nc(N)n1 [D-167] | ≥ 5000 nM
28 | Cc1cc(N2CCCOC[C@H]2c2cc3c(cc2Cl)NC[C@@](C)(C(=O)O)O3)nc(N)n1 [D-114] | ≥ 5000 nM
29 | Cc1cc(N2CCCOC[C@H]2c2cc(O)c(CS(C)(=O)=O)cc2Cl)nc(N)n1 [D-171] | ≥ 5000 nM
30 | COc1ccc([C@@H]2COCCCN2c2cc(C)nc(N)n2)c(Cl)c1 [D-168] | ≥ 5000 nM
31 | C#Cc1ccccc1C1COCCCN1c1cc(C)nc(N)n1 [D-113] | 600 to 2000 nM
32 | Cc1cc(N2CCCOC[C@@H]2c2ccc(N3C[C@@H](C)O[C@@H](C)C3)cc2Cl)nc(N)n1 [D-84] | 600 to 2000 nM
33 | Cc1cc(N2CCCOCC2c2ccc(Cl)cc2C(=O)O)nc(N)n1 [D-177] | ≥ 5000 nM
34 | Cc1cc(N2CCCOC[C@H]2c2cnc(CS(C)(=O)=O)cc2Cl)nc(N)n1 [D-76] | < 600 nM

Same assay, conditions: Homo sapiens, 6 hours after compound addition, Table 4

Row | Compound | IC50
35 | COc1cc(C2COCCCN2c2cc(C)nc(N)n2)c(Cl)cc1N (stereo not drawn) [C-76] | < 600 nM
36 | Cc1cc(N2CCCOCC2c2ccc(CS(C)(=O)=O)cc2OC(F)(F)F)nc(N)n1 (stereo not drawn) [C-113] | < 600 nM
37 | COc1cc(Cl)c([C@H]2COCCCN2c2cc(C)nc(N)n2)cc1OC(C)C [C-144] | 600 to 2000 nM
38 | Cc1cc(N2CCCOC[C@@H]2c2cc3c(cc2Cl)OCC(=O)N3)nc(N)n1 [C-67] | ≥ 5000 nM
39 | COc1cc([C@H]2COCCCN2c2cc(C)nc(N)n2)c(Cl)cc1O [C-78] | < 600 nM
40 | Cc1cc(N2CCCOCC2c2ccc(OCC(N)=O)cc2Cl)nc(N)n1 (stereo not drawn) [C-53, 2-{4-[4-(2-Amino-6-methyl-pyrimidin-4-yl)-[1,4]oxazepan-3-yl]-3-chloro-phenoxy}-acetamide] | < 600 nM
41 | CCOC(=O)COc1cc(Cl)c(C2COCCCN2c2cc(C)nc(N)n2)cc1OC (stereo not drawn) [C-89] | 600 to 2000 nM
42 | COc1cc(Cl)c([C@@H]2COCCCN2c2cc(C)nc(N)n2)cc1OC [C-81] | ≥ 5000 nM
43 | CCOc1cc(Cl)c([C@H]2COCCCN2c2cc(C)nc(N)n2)cc1OCC [C-103] | < 600 nM
44 | Cc1cc(N2CCCOCC2c2cc(S(N)(=O)=O)c(Cl)cc2Cl)nc(N)n1 (stereo not drawn) [C-8] | 600 to 2000 nM
45 | Cc1cc(N2CC3(CC3)COCC2c2ccc(CS(C)(=O)=O)cc2Cl)nc(N)n1 (stereo not drawn) [C-62, 4-[7-(2-Chloro-4-methanesulfonylmethyl-phenyl)-5-oxa-8-aza-spiro[2.6]non-8-yl]-6-methyl-pyrimidin-2-ylamine] | ≥ 5000 nM
46 | CCCOc1cc(Cl)c(C2COCCCN2c2cc(C)nc(N)n2)cc1OCC (stereo not drawn) [C-91] | 600 to 2000 nM
47 | Cc1cc(N2CCCOCC2c2ccc(CS(C)(=O)=O)nc2Cl)nc(N)n1 (stereo not drawn) [C-82] | 600 to 2000 nM
48 | Cc1cc(N2CCCOC[C@@H]2c2cc(Cl)c(O)cc2Cl)nc(N)n1 [C-87] | 600 to 2000 nM
49 | COC(=O)COc1cc(Cl)c(C2COCCCN2c2cc(C)nc(N)n2)cc1OC (stereo not drawn) [C-44] | 600 to 2000 nM
50 | COc1cc(Cl)c(C2COCCCN2c2cc(C)nc(N)n2)cc1OC1CCC1 (stereo not drawn) [C-56] | 2000 to 5000 nM
51 | Cc1cc(N)nc(N2CCCOCC2c2cc3c(cc2Cl)CCN3C)c1 (stereo not drawn) [C-54] | < 600 nM
52 | Cc1cc(N2CC(O)COC[C@@H]2c2ccc(N3CCC(C)(O)CC3)cc2Cl)nc(N)n1 (stereo partly drawn) [C-124] | < 600 nM
53 | Cc1cc(N2CCCOC[C@H]2c2cc3c(cc2Cl)OCC(=O)N3)nc(N)n1 [C-68] | < 600 nM

Row | Compound | IC50
54 | Cc1cc(N2CCCOCC2c2cc(Cl)c(OC(F)F)cc2Cl)nc(N)n1 (stereo not drawn) [C-57] | 600 to 2000 nM
55 | COc1cc(Cl)c([C@H]2COCCCN2c2cc(C)nc(N)n2)cc1OC [C-80] | < 600 nM
56 | Cc1cc(N2C[C@H](C)COC[C@H]2c2ccc(CS(C)(=O)=O)cc2Cl)nc(N)n1 [C-139] | ≥ 5000 nM
57 | Cc1cc(N2CCCOC[C@@H]2c2cc3c(cc2Cl)n(C)c(=O)n3C)nc(N)n1 [C-93] | < 600 nM
58 | Cc1cc(N2CCCOCC2c2cc(C)c(N3CCCC3)cc2Cl)nc(N)n1 (stereo not drawn) [C-112] | 600 to 2000 nM
59 | COc1cc(C2COCCCN2c2cc(C)nc(N)n2)c(Cl)cc1Cl (stereo not drawn) [C-46] | 2000 to 5000 nM
60 | COc1cc(C2COCCCN2c2cc(C)nc(N)n2)c(Cl)cc1OCC#N (stereo not drawn) [C-98] | < 600 nM
61 | Cc1cc(N2CCCOC[C@@H]2c2cc3c(cc2Cl)OCCO3)nc(N)n1 [C-70] | < 600 nM
62 | Cc1cc(N2CCCOC[C@@H]2c2cc(C(F)(F)F)c(N)cc2Cl)nc(N)n1 [C-119] | < 600 nM
63 | Cc1cc(N2CCCOC[C@H]2c2cc(C)c(N)cc2Cl)nc(N)n1 [C-114] | ≥ 5000 nM
64 | Cc1cc(N2CCCOCC2c2cc(O)c(Cl)cc2Cl)nc(N)n1 (stereo not drawn) [C-9] | 600 to 2000 nM
65 | Cc1cc(N2CCCOCC2c2ccc(CS(C)(=O)=O)cc2OC(F)F)nc(N)n1 (stereo not drawn) [C-75] | < 600 nM
66 | COc1cc(Cl)c(C2COCCCN2c2cc(C)nc(N)n2)cc1C (stereo not drawn) [C-99] | 600 to 2000 nM
67 | Cc1cc(N2CCCOCC2c2ccc(OC[C@H](O)CO)cc2Cl)nc(N)n1 (stereo partly drawn) [C-61, (R)-3-{4-[4-(2-Amino-6-methyl-pyrimidin-4-yl)-[1,4]oxazepan-3-yl]-3-chloro-phenoxy}-propane-1,2-diol] | < 600 nM
68 | Cc1cc(N2CCCOCC2c2cc3c(cc2Cl)OCC2(CC2)CO3)nc(N)n1 (stereo not drawn) [C-90] | < 600 nM
69 | Cc1cc(N2CCCOCC2c2cc3c(cc2Cl)CCCN3)nc(N)n1 (stereo not drawn) [C-88] | 2000 to 5000 nM
70 | Cc1cc(N2CC3(CC3)COC[C@@H]2c2ccc(CS(C)(=O)=O)cc2Cl)nc(N)n1 [C-136] | ≥ 5000 nM
71 | Cc1cc(N2CCCOCC2c2cc3c(cc2Cl)CCC3)nc(N)n1 (stereo not drawn) [C-26] | 600 to 2000 nM
72 | CSCOc1ccc([C@H]2COCCCN2c2cc(C)nc(N)n2)c(Cl)c1 [C-121, 4-[(S)-3-(2-Chloro-4-methylsulfanylmethoxy-phenyl)-[1,4]oxazepan-4-yl]-6-methyl-pyrimidin-2-ylamine] | ≥ 5000 nM
